Data taken from patent US20150065416A1, “NOVEL DRUG COMBINATION” (FAB PHARMA SAS, priority 2013, published 2015).
In brackets after ≈: the same amount, converted by molar mass. Read-outs that look alike come from different tables or passages of the source.

How the values were obtained:
A. baumannii isolates = assay: Individual antimicrobial susceptibility testing (MIC, broth microdilution, CLSI); format: cell-based, Acinetobacter baumannii
Experimental: In the antimicrobial susceptibility testing 77 isolates of A. baumannii (from 2010) in the following sub-groups were tested: • 22 isolates generally susceptible to antimicrobial agents (“Sus”) • 20 carbapenem-resistant isolates (e.g. “MPM-R”) • 20 aminoglycoside-resistant isolates (e.g. “AMK-R”) • 15 colistin-resistant isolates. (e.g. “COL-R”)
Minimum inhibitory concentration (MIC) endpoints were determined by broth microdilution according to CLSI guidelines (CLSI, M7-A8 & M100-S22, 2012). Panels were prepared at IHMA using cation-adjusted Mueller-Hinton broth. Colonies were taken directly from a second-pass culture plate and prepared to a suspension equivalent of the 0.5 McFarland standard using normal saline.
Testing was carried out as described in the General Procedures to determine minimum inhibitory concentration (MIC) end points for compound (I), amikacin, colistin, gentamicin, meropenem and tobramycin, for 77 A. baumannii isolates. Under the “MIC (μg/ml)” heading, the first column (Range) indicates the MIC end points for the particular number (N) of isolates tested, the second column (50%) provides an estimate of the concentration that inhibits 50% (MIC50) of bacterial isolates tested, and the third column (90%) provides an estimate of the concentration that inhibits 90% of the bacterial isolates tested.

A. baumannii SAN-94040 [1] = assay: Mouse model of A. baumannii pneumonia, Study 2: bacterial counts in blood and tissues; format: in vivo, Acinetobacter baumannii
Experimental: (§1) The bacterial inoculum was prepared in order to obtain a suspension containing 10^8 CFU/mL of Acinetobacter baumannii in saline.
(§2) Experimentations were performed with six-week old female C3H/HeN mice (18-20 g, Breeding Centre JANVIER (Ile saint Genest Mayenne 53)) because of their particular susceptibility to Acinetobacter baumannii and the reproducibility of the results (inbreeding in the breed). Each mouse was individually marked and housed in cages containing five animals/cage under ventilated and controlled (temperature and humidity) atmosphere.
(§3) The mice were rendered transiently neutropenic by 2 intra-peritoneal (IP) injections of 150 μL of cyclophosphamide (Endoxan® 150 mg/kg) 4 (D-4) and 3 (D-3) days before the Acinetobacter baumannii inoculation (Day 0). This transient immunosuppression was sufficient to facilitate the development of the A. baumannii pneumonia while allowing the recovery of the neutrophil influx 2 (Day 2) days after inoculation in order to avoid or limit a systemic bacterial dissemination.
(§4) Mice were anesthetized by a mixture of oxygen and isoflurane. The bacterial inoculation was performed on Day 0 by intra-tracheal installation using an endotracheal catheter (50 μl of the suspension, thus 5.106 CFU). The positioning of the catheter in the trachea (instead of in the oesophagus) was checked by a “ring test”. The bacterial count in lungs was checked for all study groups by sacrificing one mouse immediately after inoculation.
Sample time points: T0 (pre-inoculation), T24h (post inoculation), T48h and T72h.
Blood samples preparation: At each time point, three mice were sacrificed per group by cervical dislocation.
Tissue samples preparation: At each time point, three mice were sacrificed per group. Lungs, kidneys, liver and spleen were collected after the blood sampling and cervical dislocation. Tissues were wiped with a sterile gauze to remove blood contaminant outside. Tissues were then be weighed, finely ground and plated on agar for quantitative culture. Cultures were incubated at 37° C. for 18 to 24 hours.
The aim of this experiment was to assess the bacterial counts in blood, lungs, spleen, liver and kidneys of transiently neutropenic female C3H/HeN mice administered, 3 hours post-inoculation of A. baumannii SAN-94040 via intra-tracheal route, with compound (I) via intra-peritoneal route at 200 mg/kg 3 times daily (every 8 hours) for 1 day alone and in combination with meropenem at 50 mg/kg 3 times daily (every 8 hours) for 1 day or with amikacin at 18 mg/kg 3 times daily (every 8 hours) for 1 day.
All results concerning bacterial counts were expressed from Day 0 (inoculation) to 72 hours post-inoculation (Day 3). Bacterial counts on Day 3 were carried out only on surviving mice and results were more objectionable for interpretation. On Day 0, only bacterial count in lung of control mice was performed. Bacterial cell counts were determined as set out in the General Procedures.

[2] = system: A. baumannii CIP 5377, CIP 7034, AYE, SAN, RCH; assay: Antimicrobial susceptibility testing (MIC, broth microdilution, EUCAST; Example 5); format: cell-based, Acinetobacter baumannii; details: Acinetobacter baumannii
Excerpt: A. baumannii CIP 5377 (ATCC® 17978): low cephalosporinase producing strain, susceptible to meropenem and amikacin, isolated in an infected patient
A. baumannii CIP 7034: low cephalosporinase producing strain, susceptible to meropenem and amikacin A. baumannii AYE ATCC® BAA1710™: extended spectrum beta-lactamase producing strain susceptible to meropenem and resistant to amikacin
A. baumannii SAN-94040 (SAN): cephalosporinase-overproducing strain, susceptible to meropenem and intermediate to amikacin and resistant to fluoroquinolones, isolated from blood cultures of an intensive care patient with nosocomial pneumonia from North Africa (Algeria).
A. baumannii RCH-69: cephalosporinase producing strain; low susceptibility to imipenem and resistant to amikacin.

A. baumannii SAN-94040 [3] = assay: Mouse model of A. baumannii pneumonia, Study 1: survival; format: in vivo, Acinetobacter baumannii
Experimental: as §1, §2, §3, §4
Survival observations were assessed twice daily, up to 4 days post infection. The survival rates were compared with the Chi-square test or the Fisher exact test as appropriate. The survival curves were compared by the Kaplan-Meier method.
The aim of this experiment was to assess the […], with compound (I) via intra-peritoneal route at 200 mg/kg 3 times daily (every 8 hours) for 1 day alone and in combination with meropenem at 50 mg/kg 3 times daily (every 8 hours) for 1 day or with amikacin at 18 mg/kg 3 times daily (every 8 hours) for 1 day.

[4] = Acinetobacter baumannii, All isolates, N=77
[5] = Acinetobacter baumannii, Amikacin-resistant isolates, N=20
[6] = Acinetobacter baumannii, Colistin-resistant isolates, N=15
[7] = Acinetobacter baumannii, Meropenem-resistant isolates, N=20
[8] = Acinetobacter baumannii, Susceptible isolates, N=22
[9] = Study 2, 24 h, compound (I) 200 mg/kg Q8h, amikacin 18 mg/kg, meropenem 50 mg/kg Q8h I.P. for 1 day
[10] = A. baumannii AYE, read-out: MIC
[11] = A. baumannii CIP 5377, read-out: MIC
[12] = A. baumannii CIP 7034, read-out: MIC
[13] = A. baumannii RCH, read-out: MIC
[14] = A. baumannii SAN, read-out: MIC
[15] = Study 1, 0 h after infection, doses as E210
[16] = Study 1, 24 h after infection, doses as E210
[17] = Study 1, 48 h after infection, doses as E210
[18] = Study 1, 72 h after infection, doses as E210
[19] = Study 1, 96 h after infection, doses as E210
[20] = Study 1, C3H/HeN mice, 0 h after SAN-94040 infection, compound (I) 200 mg/kg, amikacin 18 mg/kg, meropenem 50 mg/kg q 8 h I.P.
[21] = Amikacin-resistant isolates, N=20

Structure (SMILES) | MIC50 (A. baumannii isolates; [4]) [µg/mL] | MIC90 (A. baumannii isolates; [4]) [µg/mL] | MIC50 (A. baumannii isolates; [5]) [µg/mL] | MIC90 (A. baumannii isolates; [5]) [µg/mL] | MIC50 (A. baumannii isolates; [6]) [µg/mL] | MIC90 (A. baumannii isolates; [6]) [µg/mL] | MIC50 (A. baumannii isolates; [7]) [µg/mL] | MIC90 (A. baumannii isolates; [7]) [µg/mL] | MIC50 (A. baumannii isolates; [8]) [µg/mL] | MIC90 (A. baumannii isolates; [8]) [µg/mL] | MIC Range (A. baumannii isolates; Susceptible isolates, N=22) [µg/mL] | lung bacterial counts (A. baumannii SAN-94040 [1]; [9]) [CFU/g Lung] | lung bacterial counts (A. baumannii SAN-94040 [1]; Study 2, 48 h) [CFU/g Lung] | MIC [2, 10] [µg/mL] | MIC [2, 11] [µg/mL] | MIC [2, 12] [µg/mL] | MIC [2, 13] [µg/mL] | MIC [2, 14] [µg/mL] | survivors (%) (A. baumannii SAN-94040 [3]; [15]) | No. of survivors (A. baumannii SAN-94040 [3]; [16]) | further results
NCC[C@H](O)C(=O)N[C@@H]1C[C@H](N)[C@@H](O[C@H]2O[C@H](CN)[C@@H](O)[C@H](O)[C@H]2O)[C@H](O)[C@H]1O[C@H]1O[C@H](CO)[C@@H](O)[C@H](N)[C@H]1O [amikacin] | 8 (≈ 13.7 µM) | > 128 | > 128 | > 128 | 64 (≈ 109 µM) | > 128 | 8 (≈ 13.7 µM) | 128 (≈ 219 µM) | 4 (≈ 6.83 µM) | 8 (≈ 13.7 µM) | 0.25 to 8 | 1.33E+09 | 4.41E+08 | 32 (≈ 54.6 µM) | 2 (≈ 3.42 µM) | 8 (≈ 13.7 µM) | > 32 | 4 (≈ 6.83 µM) | 100 | 12 | survivors (%) (A. baumannii SAN-94040 [3]; [16]): 86%; No. of survivors (A. baumannii SAN-94040 [3]; [17]): 1; survivors (%) (A. baumannii SAN-94040 [3]; [17]): 17%; No. of survivors (A. baumannii SAN-94040 [3]; [18]): 0; No. of survivors (A. baumannii SAN-94040 [3]; [19]): 0; No. of survivors (A. baumannii SAN-94040 [3]; [20]): 14
CCc1cc(O)c(Oc2ccc(C(N)=O)cc2F)cc1F [compound (I), 4-(4-ethyl-5-fluoro-2-hydroxyphenoxy)-3-fluorobenzamide] | 4 (≈ 13.6 µM) | 8 (≈ 27.3 µM) | 4 (≈ 13.6 µM) | 8 (≈ 27.3 µM) | 4 (≈ 13.6 µM) | > 32 | 8 (≈ 27.3 µM) | 8 (≈ 27.3 µM) | 4 (≈ 13.6 µM) | 8 (≈ 27.3 µM) | 0.5 to 8 | 4.72E+09 | 3.75E+05 | 2 (≈ 6.82 µM) | 2 (≈ 6.82 µM) | 1 (≈ 3.41 µM) | 2 (≈ 6.82 µM) | 2 (≈ 6.82 µM) | 100 | 10 | range of the majority of MICs (A. baumannii isolates; 77 isolates): 2 to 8 µg/mL; MIC (A. baumannii isolates; Acinetobacter baumannii, 77 isolates, FIG. 1 and 2, read-out: mode MIC): 4 µg/mL (≈ 13.6 µM); MIC Range (A. baumannii isolates; [21]): 2 to 8 µg/mL; MICs ranging (A. baumannii isolates; amikacin-R isolates): 2 to 8 µg/mL; MICs ranging (A. baumannii isolates; susceptible isolates): 0.5 to 8 µg/mL; MIC ([2]; 5 isolates of A. baumannii, read-out: MICs ranging): 1 to 2 µg/mL (≈ 3.41 to 6.82 µM); survivors (%) (A. baumannii SAN-94040 [3]; [16]): 71%; No. of survivors (A. baumannii SAN-94040 [3]; [17]): 0; No. of survivors (A. baumannii SAN-94040 [3]; [18]): 0; survivors (%) (A. baumannii SAN-94040 [3]; [18]): 0%; No. of survivors (A. baumannii SAN-94040 [3]; [19]): 0; No. of survivors (A. baumannii SAN-94040 [3]; [20]): 14; time post-infection within which all animals died (A. baumannii SAN-94040 [3]; Study 1, SAN-94040): ≤ 48 h
C[C@@H](O)[C@H]1C(=O)N2C(C(=O)O)=C(S[C@@H]3CN[C@H](C(=O)N(C)C)C3)[C@H](C)[C@H]12 [meropenem] | 4 (≈ 10.4 µM) | > 32 | 2 (≈ 5.22 µM) | 16 (≈ 41.7 µM) | 32 (≈ 83.4 µM) | > 32 | > 32 | > 32 | 0.25 (≈ 0.652 µM) | 2 (≈ 5.22 µM) | 0.06 to 4 | 3.75E+04 | 5.56E+06 | 1 (≈ 2.61 µM) | 0.25 (≈ 0.652 µM) | 1 (≈ 2.61 µM) | 32 (≈ 83.4 µM) | 1 (≈ 2.61 µM) | 100 | 14 | MIC Range (A. baumannii isolates; [21]): 0.5 to 32 µg/mL; blood bacterial counts (A. baumannii SAN-94040 [1]; Study 2, 24 h): 0 CFU/mL Blood; blood bacterial counts (A. baumannii SAN-94040 [1]; Study 2, 48 h): 0 CFU/mL Blood; kidney bacterial counts (A. baumannii SAN-94040 [1]; Study 2, 48 h): 0 CFU/g Kidneys; liver bacterial counts (A. baumannii SAN-94040 [1]; Study 2, 48 h): 0 CFU/g Liver; blood bacterial counts (A. baumannii SAN-94040 [1]; Study 2, 72 h): 0 CFU/mL Blood; kidney bacterial counts (A. baumannii SAN-94040 [1]; Study 2, 72 h): 0 CFU/g Kidneys; liver bacterial counts (A. baumannii SAN-94040 [1]; Study 2, 72 h): 0 CFU/g Liver; spleen bacterial counts (A. baumannii SAN-94040 [1]; Study 2, 72 h): 0 CFU/g Spleen; lung bacterial counts (A. baumannii SAN-94040 [1]; Study 2, 72 h, surviving mice only): 1.00E+00 CFU/g Lung; survivors (%) (A. baumannii SAN-94040 [3]; [16]): 100%; No. of survivors (A. baumannii SAN-94040 [3]; [17]): 11; survivors (%) (A. baumannii SAN-94040 [3]; [17]): 79%; No. of survivors (A. baumannii SAN-94040 [3]; [18]): 6; survivors (%) (A. baumannii SAN-94040 [3]; [18]): 43%; No. of survivors (A. baumannii SAN-94040 [3]; [19]): 6; survivors (%) (A. baumannii SAN-94040 [3]; [19]): 43%; No. of survivors (A. baumannii SAN-94040 [3]; [20]): 14; efficacy compared to the control group (A. baumannii SAN-94040 [3]; Study 1, survival): significant efficacy
